Assay results taken from ChEMBL document CHEMBL5365456, “Isolation and biological activity of natural chalcones based on antibacterial mechanism classification” (Bioorg Med Chem, 2023).
In brackets after ≈: the same amount, converted by molar mass.

Experiments:
Format in all cases: functional
[1] = tested on: Mycobacterium tuberculosis variant bovis; assay: Antibacterial activity against Mycobacterium bovis BCG transfected with pVV16 vector expressing Rv0636 assessed bacterial growth inhibition by Alamar Blue cell viability assay
[2] = tested on: Mycobacterium tuberculosis variant bovis; assay: Antibacterial activity against Mycobacterium bovis BCG transfected with pVV16 vector assessed bacterial growth inhibition by Alamar Blue cell viability assay
[3] = tested on: Mycobacterium tuberculosis variant bovis; assay: Antibacterial activity against Mycobacterium bovis BCG assessed bacterial growth inhibition by Alamar Blue cell viability assay

Row | Compound | MIC99 [1] | MIC99 [2] | MIC99 [3]
1 | O=C(/C=C/c1ccc(O)c(O)c1)c1ccc(O)cc1O [BUTEIN] | 59 µg/mL (≈ 217 µM) | 43 µg/mL (≈ 158 µM) | 47 µg/mL (≈ 173 µM)
2 | O=C(/C=C/c1ccc(O)cc1)c1ccc(O)cc1O [ISOLIQUIRITIGENIN] | 64 µg/mL (≈ 250 µM) | 50 µg/mL (≈ 195 µM) | 50 µg/mL (≈ 195 µM)
